Key:
[1] = tested on: pro-collagen synthesis in Hs27/HEK001 cells; assay: Pro-Collagen Synthesis In Vitro Assay (Procollagen ELISA); format: cell-based, human
Procedure: Hs27/HEK001 cells are plated at 10,000/40,000 cells per well of 96-well plate. Hs27 cells are normal human fibroblasts derived from a foreskin source. […] cells are a human epidermal cell line that originally was derived from human scalp keratinocytes. […] Hs27/HEK001 cells are allowed to attach overnight. Following overnight incubation, media is removed from the wells and replaced with 100 μl fresh media.
After overnight incubation, the test samples are added to wells in triplicate to final concentrations of 1, 10, and 100 μg/ml. The cells with test sample added are incubated overnight and supernatants are collected for analysis using a Procollagen ELISA kit from Takara Bio, Inc. (Japan). The EC50 concentration for each test sample is monitored and recorded to evaluate variability over time.
Controls for this assay include administration of 0.1, 1, and 10 μg/ml ascorbic acid and all-trans-retinoic acid to H27/HEK cells. Untreated cells also are used as a negative control. It generally is known that ascorbic acid increases pro-collagen synthesis by approximately 15-20% compared to untreated control.

[2] = tested on: glycosaminoglycan production; assay: Synthesis of glycosaminoglycans after allantoin administration; format: cell-based
elastin = assay: Elastin synthesis after allantoin administration; format: cell-based
[3] = tested on: pro-collagen synthesis in Hs27/HEK001 cells; conditions: generally known value for the control substance; cited from earlier work

| SMILES | Pro-collagen synthesis, percent of untreated control ([1]; allantoin at 100 μg/ml, average of triplicate wells) | average increase in pro-collagen synthesis ([1]; at 100 μg/ml) | dose dependence of pro-collagen synthesis ([1]; final concentrations of 1, 10, and 100 μg/ml) | Glycosaminoglycan synthesis, percent of untreated control ([2]; allantoin at 100 μg/ml) | average increase in glycosaminoglycan production ([2]; at 100 μg/ml) | Elastin synthesis, percent of untreated control (elastin; allantoin at 100 μg/ml) | average increase in elastin (elastin; at 100 μg/ml) | increase in pro-collagen synthesis compared to untreated control [3] |
| --- | --- | --- | --- | --- | --- | --- | --- | --- |
| NC(=O)NC1NC(=O)NC1=O (centres unmarked) [Allantoin, 2,5-dioxy-4-imidazolidinyl urea] | 124.1% | 24.1% | dose-dependent increase in pro-collagen synthesis | 111.2% | 11.2% | 106.2% | 6.2% |  |
| O=C1O[C@H]([C@@H](O)CO)C(O)=C1O [ascorbic acid] |  |  |  |  |  |  |  | 15-20% |
